Where two headings read alike, the source gives them in different places.
Tests used:
[1] = system: broccoli; assay: Broccoli seedlings in pots sprayed: height, fresh and dry weight (Example 4); type: in vivo
Method: Broccoli seedling were planted into pots with peat substrate (P9 pots having 0.5 l). Pots were placed in greenhouse and cultivated for a 1 month. […] 2-fluoroethyl(trimethyl)ammonium benzo[1,2,3]thiadiazole-7-carboxylate; 3. 2-bromoethyl(trimethyl)ammonium benzo[1,2,3]thiadiazole-7-carboxylate; 4. 2-chloroethyl(trimethyl)ammonium benzo[1,2,3]thiadiazole-7-carboxylate; 5. 2-iodoethyl(trimethyl)ammonium benzo[1,2,3]thiadiazole-7-carboxylate used at a concentration of 30 mg/L and 6. 2-hydroxyethyl(trimethyl)ammonium 3-chlorosalicylate (tested also at a concentration of 50 mg/L); 7. 3-chlorosalicylate 2-fluoroethyl(trimethyl)ammonium; 8. 3-chlorosalicylate 2-bromoethyl(trimethyl)ammonium; 9. 3-chlorosalicylate 2-chloroethyl(trimethyl)ammonium; 10. 3-chlorosalicylate 2-iodoethyl(trimethyl)ammonium used at a concentration of 80 mg/L. Plants were sprayed with tested substances three times at 10-day intervals. Plants treated with water only were the untreated control. During the course of the experiment, the height of the plants was measured, and at the end the fresh and dry weight of the aboveground part was evaluated. The experiment was conducted in 4 repetitions with 5 plants in each (a total of 20 plants per each combination).

[2] = system: tomato seedlings; assay: Tomato seedlings in pots sprayed 3 times: height, fresh and dry weight, chlorophyll (Example 3); type: in vivo; details: 80 mg/L, benzothiadiazole salt 30 mg/L
From the text: Tomato seedlings (12 according to development scale BBCH) were planted into pots with peat substrate (P9 pots having 0.5 l). Plant pots were placed in greenhouse and cultivated for a 1 and a half month. Plants were sprayed with tested substance 3 times, in 10-day interval. […] 2-methoxyethyl(trimethyl)-ammonium benzo[1,2,3]thiadiazole-7-carboxylate; 3. […] 2-methoxyethyl(trimethyl)ammonium 3-chlorosalicylate; 7. 2-ethoxyethyl(trimethyl)ammonium 3-chlorosalicylate; 8. ethyl(trimethyl)ammonium 3-chlorosalicylate at a concentration od 80 mg/l. Plants were sprayed with tested substances three times at 10-day intervals. Plants in peat substrate treated with water only were the control. During the course of the experiment, the height of the plants was measured, and at the end the fresh and dry weight of the aboveground part was evaluated. Moreover chlorophyll content was measured. The experiment was conducted in 4 repetitions with 5 plants in each (a total of 20 plants per each variant of treatment).

[3] = system: tomato; assay: Greenhouse tomato sprayed three times: yield, health-promoting substances, leaf chlorophyll (Example 2); type: in vivo; details: 80 mg/L, benzothiadiazole salt 30 mg/L, chitosan lactate 50 mg/L
Method: Biostimulant properties were evaluated for the following stimulants: […] The evaluation of stimulant properties included the influence of tested substances on tomato yield, content of health-promoting substances in yield and chlorophyll content in tomato leaves. […] The untreated control plants were sprayed with distilled water. During the experiment, total yield weight, commercial and non-commercial yield and average commercial fruit weight, number of fruits per plant and average fruit weight per plant were evaluated. […] Chlorophyll was measured before each treatment and one day after each treatment using Minolta's SPAD-502 chlorophyll meter.

[4] = system: winter rapeseed; details: for more aboveground dry matter compared to control: last harvest date, fully ripe
From the text: The experiment was established using the long strip method in four repetitions. The dimensions of the plots at establishment were 96 m^2 gross, while the harvestable area was 23.25 m^2 net.
In the experiment, uniform NPK fertilization was applied, using both bulk and liquid fertilizers.
The following facilities were included in the experiment: • 1. control, no stimulant application, standard fungicide protection • 2. stimulant applied at stage 31-32 according to the BBCH development scale, standard fungicide protection • 3. stimulant applied at stage 53-55 according to the BBCH development scale, no fungicide protection

[5] = 3-chlorosalicylate 80 mg/L, benzothiadiazole salt 30 mg/L
[6] = BBCH 32, standard fungicide protection, 80 mg/L, benzothiadiazole salt 25 mg/L
[7] = BBCH 32, stimulant only, 80 mg/L, benzothiadiazole salt 25 mg/L
[8] = BBCH 55, standard fungicide protection, 80 mg/L, benzothiadiazole salt 25 mg/L
[9] = BBCH 55, without fungicide, 80 mg/L, benzothiadiazole salt 25 mg/L
[10] = first sampling date, stimulant at BBCH 31-32, no fungicide yet, 80 mg/L, benzothiadiazole salt 25 mg/L
[11] = second date, regardless of cultivation technology, 80 mg/L, benzothiadiazole salt 25 mg/L

C[N+](C)(C)CCO.O=C([O-])c1cccc(Cl)c1O [choline 3-chlorosalicylate]
Average dry mass ([1]; 50 mg/L): 0.6 b g | Average fresh mass ([1]; 50 mg/L): 6.8 b g | Average plant height, initial height, before first treatment ([1]; 50 mg/L): 37.6 b mm | Average plant height, second treatment ([1]; 50 mg/L): 146.4 a mm | Average plant height, third treatment ([1]; 50 mg/L): 178.5 a mm | Plant height increase ([1]; 50 mg/L): 140.9 a mm | Average dry mass [1, 5]: 0.6 b g | Average fresh mass [1, 5]: 6.7 b g | Average plant height, initial height, before first treatment [1, 5]: 36.5 a mm | Average plant height, second treatment [1, 5]: 146.0 a mm | Average plant height, third treatment [1, 5]: 179.5 a mm | Plant height increase [1, 5]: 143.0 a mm | Average plant height, before second treatment ([2]; chitosan lactate 50 mg/l): 143.2 b mm | Average plant height, before third treatment ([2]; chitosan lactate 50 mg/l): 345.1 b mm | Average plant height, initial height, before first treatment ([2]; chitosan lactate 50 mg/l): 59.3 a mm | Chlorophyll content (SPAD), a day after treatment #1 ([2]; chitosan lactate 50 mg/l): 74.6 b | Chlorophyll content (SPAD), a day after treatment #2 ([2]; chitosan lactate 50 mg/l): 76.2 b | Chlorophyll content (SPAD), a day after treatment #3 ([2]; chitosan lactate 50 mg/l): 79.3 b | Plant height increase ([2]; chitosan lactate 50 mg/l): 285.8 b mm | Average dry mass ([2]; above-ground part): 83.1 b g | Average fresh mass ([2]; above-ground part): 327.7 b g | Chlorophyll content (SPAD), Treatment #1 ([2]; before treatment #1, chitosan lactate 50 mg/l): 48.5 a | Chlorophyll content (SPAD), Treatment #2 ([2]; before treatment #2, chitosan lactate 50 mg/l): 48.3 a | Chlorophyll content (SPAD), Treatment #3 ([2]; before treatment #3, chitosan lactate 50 mg/l): 49.5 a | Chlorophyll content (SPAD), a day after treatment #1 [3]: 61.4 b | Chlorophyll content (SPAD), a day after treatment #2 [3]: 60.3 b | Chlorophyll content (SPAD), a day after treatment #3 [3]: 62.5 b | Chlorophyll content (SPAD), Treatment #1 ([3]; before treatment #1): 50.2 a | Chlorophyll content (SPAD), Treatment #2 ([3]; before treatment #2): 49.4 a | Chlorophyll content (SPAD), Treatment #3 ([3]; before treatment #3): 50.9 a | Average fruit weight per plant ([3]; spray 3x): 154.23 b g | Average weight of marketable fruit ([3]; spray 3x): 26.25 b kg/m^2 | Commercial yield ([3]; spray 3x): 18.4 b kg/m^2 | Number of fruits per plant ([3]; spray 3x): 4.30 b | Total yield ([3]; spray 3x): 19.13 b kg/m^2 | Calcium ([3]; tomato fruits): 97.2 a mg/kg | Lycopene ([3]; tomato fruits): 36.4 b mg/kg | Magnesium ([3]; tomato fruits): 104.5 b mg/kg | Vit. C ([3]; tomato fruits): 191.5 c mg/kg | Vit. E ([3]; tomato fruits): 25.6 b mg/kg | °Brix (sugar content of the liquid expressed in degree of Brix) ([3]; tomato fruits): 5.91 b g | increase in calcium uptake [4, 6]: 5% | increase in magnesium uptake [4, 6]: 4% | increase in nitrogen uptake [4, 6]: 6% | increase in phosphorus uptake [4, 6]: 7% | increase in potassium uptake [4, 6]: 6% | increase in calcium uptake [4, 7]: 8% | increase in magnesium uptake [4, 7]: 12% | increase in nitrogen uptake [4, 7]: 9% | increase in phosphorus uptake [4, 7]: 7% | increase in potassium uptake [4, 7]: 8% | higher fat content ([4]; BBCH 32, with fungicide, 80 mg/L, benzothiadiazole salt 25 mg/L): 6% | higher fat content ([4]; BBCH 32, without fungicide, 80 mg/L, benzothiadiazole salt 25 mg/L): 8% | increase in calcium uptake [4, 8]: 9% | increase in fat content [4, 8]: 6% | increase in magnesium uptake [4, 8]: 10% | increase in nitrogen uptake [4, 8]: 11% | increase in phosphorus uptake [4, 8]: 10% | increase in potassium uptake [4, 8]: 8% | increase in calcium uptake [4, 9]: 10% | increase in fat content [4, 9]: 5% | increase in magnesium uptake [4, 9]: 12% | increase in nitrogen uptake [4, 9]: 11% | increase in phosphorus uptake [4, 9]: 10% | increase in potassium uptake [4, 9]: 7% | seed yields higher compared to control ([4]; both fungicide and stimulant treatments, 80 mg/L, benzothiadiazole salt 25 mg/L): 20% | chlorophyll content, differences between the tested objects ([4]; first measurement date): no differences were observed | more biomass (dry weight) compared to control [4, 10]: 34% | more biomass (fresh weight) compared to control [4, 10]: 36% | more aboveground dry matter compared to control ([4]; only the stimulant, 80 mg/L, benzothiadiazole salt 25 mg/L): 42% | more aboveground dry matter compared to control ([4]; with fungicide protection, 80 mg/L, benzothiadiazole salt 25 mg/L): 38% | more dry weight compared to control, on average [4, 11]: 32% | more fresh weight compared to control, on average [4, 11]: 28% | weight of one thousand seeds higher compared to control ([4]; tested combinations, 80 mg/L, benzothiadiazole salt 25 mg/L): 10% | more chlorophyll in the leaves (SPAD) compared to control ([4]; with a fungicide, printed 'first date' (of second and third measurement dates), 80 mg/L, benzothiadiazole salt 25 mg/L): 5% | more chlorophyll in the leaves (SPAD) compared to control ([4]; with a fungicide, printed 'second date', 80 mg/L, benzothiadiazole salt 25 mg/L): 7% | more chlorophyll in the leaves (SPAD) compared to control ([4]; without a fungicide, printed 'first date', 80 mg/L, benzothiadiazole salt 25 mg/L): 6% | more chlorophyll in the leaves (SPAD) compared to control ([4]; without a fungicide, printed 'second date', 80 mg/L, benzothiadiazole salt 25 mg/L): 5% | seed yields higher compared to control ([4]; without fungicide protection, stimulant at BBCH 31-32, 80 mg/L, benzothiadiazole salt 25 mg/L): 10%
